The IC50 is the midpoint of a concentration-inhibition curve. A high value points to weaker potency.

In the first assay the target is human erythrocyte 20S proteasome (Homo sapiens, UniProt P28074). The experiment in a line: 20S proteasome inhibition assay (chymotrypsin-like activity, Suc-LLVY-AMC substrate).
Settings: not given
The molecule `COc1c(/C=C/C(C)(C)OC)ccc2c1C(=O)OCc1cc(C)cc(O)c1O2` [Compound 1, 3′-O-methyldehydroisopenicillide] came in with an IC50 of 30.5 ± 1.5 µM. Molecule `C=C(C)[C@@H](O)[C@H](O)c1ccc2c(c1OC)C(=O)OCc1cc(C)cc(O)c1O2` [Compound 2, pestalotiollide B] came in with an IC50 of 18.5 ± 4.2 µM. In turn, `C=C(C)[C@@H](O)[C@@H](O)c1ccc2c(c1OC)C(=O)OCc1cc(C)cc(O)c1O2` [Compound 3, pestalotiollide A] came in with a half-maximal inhibitory concentration (IC50) of 12.4 ± 1.1 µM. This IC50 and that of the molecule before are within 1.5-fold of each other. Take `COc1c(/C=C/C(C)(C)O)ccc2c1C(=O)OCc1cc(C)cc(O)c1O2` [Compound 4, dehydroisopenicillide]: the half-inhibitory concentration (IC50) was above 100 µM.

The molecule `COC1=CC(=O)OC(CO)C1` (centres unmarked) [Compound 5, 6-hydroxymethyl-4-methoxy-5,6-dihydro-2H-pyran-2-one] registered a half-maximal inhibitory concentration (IC50) of 20.5 ± 2.3 µM. On the same count and under the same terms, then `COc1cc(C(C)(O)C(C)O)oc(=O)c1` (centres unmarked) [Compound 6, pestalotiopyrone D], with above 100 µM; and `COc1cc(C(C)C(C)O)oc(=O)c1` (centres unmarked) [Compound 7, pestalotiopyrone E], with above 100 µM. Molecule `C/C=C(/C)c1cc(OC)cc(=O)o1` [Compound 8, pestalotiopyrone G] showed a 50% inhibitory concentration (IC50) of 1.2 ± 0.3 µM. For the molecule `CCC[C@@H](O)[C@H](O)C1CC(OC)=CC(=O)O1` (some centres unmarked) [Compound 9, LL-P880b], it took 8.9 ± 1.5 µM to reach half-maximal inhibition (IC50). `CCC(O)C[C@H](O)C1CC(OC)=CC(=O)O1` (some centres unmarked) [Compound 10, photipyrone B]: the half-inhibitory concentration (IC50) was determined as 7.9 ± 1.8 µM.

The same assay, now with this note: chymotrypsin-like activity.
Take `C/C=C(/C)c1cc(OC)cc(=O)o1` [Compound 8, pestalotiopyrone G]: the “20S proteasome inhibitory activity (in words)” value is recorded as “strong activity”.
